Results as given in paper PMC4676015, “Variant fatty acid-like molecules Conjugation, novel approaches for extending the stability of therapeutic peptides” (Scientific Reports, 2015).

Legend:
GLP-1 receptor (GLP-1R) = target: T1, GLP-1 receptor (GLP-1R) (Rattus norvegicus, UniProt P32301); test: GLP-1 receptor binding assay (cellular ELISA)
T1 construct: endogenous in cells; host or cells: rat INS-1 cells
T1 sequence (P32301 22-463): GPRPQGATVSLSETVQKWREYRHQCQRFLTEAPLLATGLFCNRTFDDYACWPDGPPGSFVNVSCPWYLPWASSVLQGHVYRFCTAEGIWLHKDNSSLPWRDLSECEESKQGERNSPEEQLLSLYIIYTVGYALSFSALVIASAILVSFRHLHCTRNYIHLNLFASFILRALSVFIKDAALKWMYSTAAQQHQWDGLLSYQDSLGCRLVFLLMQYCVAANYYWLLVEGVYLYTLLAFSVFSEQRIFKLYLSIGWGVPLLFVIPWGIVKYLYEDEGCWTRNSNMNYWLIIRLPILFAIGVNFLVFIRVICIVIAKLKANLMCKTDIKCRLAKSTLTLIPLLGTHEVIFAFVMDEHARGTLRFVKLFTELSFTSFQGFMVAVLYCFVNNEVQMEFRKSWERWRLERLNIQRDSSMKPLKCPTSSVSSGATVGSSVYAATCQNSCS
Procedure: Cells were rinsed with PBS and fixed with 4% paraformaldehyde (Thermo Scientific) for 10 min at room temperature and quenched for 5 min with 2% glycine in PBS, pH 7.5. […] After a 2 h incubation at 37 °C in a final volume of 100 μl, the excess peptides were washed, and the cells were blocked with 5% BSA (BD Biosciences). […] Colorimetric changes were analyzed by reading the absorbance at 450 nm in a SpectraMax M5 (Molecular Device) microplate reader. The peptide concentration was plotted against UV absorbance, and the Kd was calculated using Origin 7.0 software.

DPP IV enzyme = target: T2, DPP IV enzyme (Homo sapiens, UniProt P27487); test: Stability against DPP IV proteolysis with or without HSA; assay type: in vitro ADME; conditions: 37 °C, GLP-1 (7–37) ELISA; for detectability of full-length peptide at 24 h: pH 7.0, in the presence of human serum albumin (2%)
T2 construct: purchased Sigma-Aldrich
Procedure: DPP IV enzyme (0.1 mg/ml) was dissolved in 25 mM potassium phosphate buffer containing 25 mM potassium chloride and 5 mM magnesium chloride, pH 7.0.

[1] = DPP IV 0.1 mg/ml, peptide 1 mg/ml

T2 sequence (P27487 whole entry, species assumed): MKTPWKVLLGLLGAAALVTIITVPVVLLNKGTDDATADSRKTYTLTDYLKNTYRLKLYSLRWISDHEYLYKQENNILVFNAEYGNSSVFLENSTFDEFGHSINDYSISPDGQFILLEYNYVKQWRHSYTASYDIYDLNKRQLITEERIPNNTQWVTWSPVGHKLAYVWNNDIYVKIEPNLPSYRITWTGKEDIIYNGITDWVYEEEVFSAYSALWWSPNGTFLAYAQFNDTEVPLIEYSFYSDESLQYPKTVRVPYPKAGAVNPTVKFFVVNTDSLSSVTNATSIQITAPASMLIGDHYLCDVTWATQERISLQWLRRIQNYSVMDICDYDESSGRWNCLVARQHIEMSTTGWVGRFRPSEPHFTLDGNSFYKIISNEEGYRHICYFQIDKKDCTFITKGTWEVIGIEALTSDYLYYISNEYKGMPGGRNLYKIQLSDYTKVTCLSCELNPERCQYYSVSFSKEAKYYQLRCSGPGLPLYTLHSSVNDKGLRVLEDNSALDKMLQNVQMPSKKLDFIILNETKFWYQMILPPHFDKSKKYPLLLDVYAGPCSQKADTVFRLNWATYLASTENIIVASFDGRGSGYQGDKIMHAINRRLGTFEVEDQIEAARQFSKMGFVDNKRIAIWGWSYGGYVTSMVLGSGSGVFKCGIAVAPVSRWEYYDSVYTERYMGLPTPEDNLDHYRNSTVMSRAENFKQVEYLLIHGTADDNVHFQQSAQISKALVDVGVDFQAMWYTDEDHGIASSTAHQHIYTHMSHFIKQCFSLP

| SMILES | Kd (GLP-1 receptor (GLP-1R)) | other results |
| --- | --- | --- |
| CCCCCCCCCCCCCCCCNC(=O)C[C@H](NC(=O)[C@@H](NC(=O)[C@H](CC(C)C)NC(=O)[C@H](Cc1c[nH]c2ccccc12)NC(=O)[C@H](C)NC(=O)[C@@H](NC(=O)[C@H](Cc1ccccc1)NC(=O)[C@H](CCC(=O)O)NC(=O)[C@H](CCCCN)NC(=O)[C@H](C)NC(=O)[C@H](C)NC(=O)[C@H](CCC(N)=O)NC(=O)CNC(=O)[C@H](CCC(=O)O)NC(=O)[C@H](CC(C)C)NC(=O)[C@H](Cc1ccc(O)cc1)NC(=O)[C@H](CO)NC(=O)[C@H](CO)NC(=O)[C@@H](NC(=O)[C@H](CC(=O)O)NC(=O)[C@H](CO)NC(=O)[C@@H](NC(=O)[C@H](Cc1ccccc1)NC(=O)[C@@H](NC(=O)CNC(=O)[C@H](CCC(=O)O)NC(=O)[C@H](C)NC(=O)[C@@H](N)Cc1c[nH]cn1)[C@@H](C)O)[C@@H](C)O)C(C)C)[C@@H](C)CC)C(C)C)C(=O)NCC(=O)N[C@@H](CCCNC(=N)N)C(=O)NCC(=O)O [compound 21] | 17.5 ± 2.75 nM | detectability of full-length peptide at 24 h (DPP IV enzyme; [1]): still detectable at 24 h; AUCGLP-1(7–37) in proteolysis solution compared to native GLP-1 (DPP IV enzyme; DPP IV proteolysis solution, P < 0.01): significantly increased |
| CCCCCCCCCCCCCCCCNC(=O)CC[C@H](NC(=O)[C@H](CC(C)C)NC(=O)[C@H](Cc1ccc(O)cc1)NC(=O)[C@H](CO)NC(=O)[C@H](CO)NC(=O)[C@@H](NC(=O)[C@H](CC(=O)O)NC(=O)[C@H](CO)NC(=O)[C@@H](NC(=O)[C@H](Cc1ccccc1)NC(=O)[C@@H](NC(=O)CNC(=O)[C@H](CCC(=O)O)NC(=O)[C@H](C)NC(=O)[C@@H](N)Cc1c[nH]cn1)[C@@H](C)O)[C@@H](C)O)C(C)C)C(=O)NCC(=O)N[C@@H](CCC(N)=O)C(=O)N[C@@H](C)C(=O)N[C@@H](C)C(=O)N[C@@H](CCCCN)C(=O)N[C@@H](CCC(=O)O)C(=O)N[C@@H](Cc1ccccc1)C(=O)N[C@H](C(=O)N[C@@H](C)C(=O)N[C@@H](Cc1c[nH]c2ccccc12)C(=O)N[C@@H](CC(C)C)C(=O)N[C@H](C(=O)N[C@@H](CCCCN)C(=O)NCC(=O)N[C@@H](CCCNC(=N)N)C(=O)NCC(=O)O)C(C)C)[C@@H](C)CC [compound 15] |  | degradation in DPP IV proteolysis compared with wild-type GLP-1, within 24 h (DPP IV enzyme; DPP IV 0.1 mg/ml, 25 mM potassium phosphate, 25 mM KCl, 5 mM MgCl2, pH 7.0, 2% HSA, peptide 1 mg/ml, 24 h): slower degradation rates; detectability of full-length peptide at 24 h (DPP IV enzyme; [1]): still detectable at 24 h |
| CCCCCCCCCCCC(=O)NCCCC[C@H](NC(=O)[C@H](C)NC(=O)[C@H](C)NC(=O)[C@H](CCC(N)=O)NC(=O)CNC(=O)[C@H](CCC(=O)O)NC(=O)[C@H](CC(C)C)NC(=O)[C@H](Cc1ccc(O)cc1)NC(=O)[C@H](CO)NC(=O)[C@H](CO)NC(=O)[C@@H](NC(=O)[C@H](CC(=O)O)NC(=O)[C@H](CO)NC(=O)[C@@H](NC(=O)[C@H](Cc1ccccc1)NC(=O)[C@@H](NC(=O)CNC(=O)[C@H](CCC(=O)O)NC(=O)[C@H](C)NC(=O)[C@@H](N)Cc1c[nH]cn1)[C@@H](C)O)[C@@H](C)O)C(C)C)C(=O)N[C@@H](CCC(=O)O)C(=O)N[C@@H](Cc1ccccc1)C(=O)N[C@H](C(=O)N[C@@H](C)C(=O)N[C@@H](Cc1c[nH]c2ccccc12)C(=O)N[C@@H](CC(C)C)C(=O)N[C@H](C(=O)N[C@@H](CCCCN)C(=O)NCC(=O)N[C@@H](CCCNC(=N)N)C(=O)NCC(=O)O)C(C)C)[C@@H](C)CC [compound 2] | 39.9 ± 1.27 nM |  |
| CCCCCCCCCCCCCCCCNC(=O)C[C@H](NC(=O)[C@H](CO)NC(=O)[C@@H](NC(=O)[C@H](Cc1ccccc1)NC(=O)[C@@H](NC(=O)CNC(=O)[C@H](CCC(=O)O)NC(=O)[C@H](C)NC(=O)[C@@H](N)Cc1c[nH]cn1)[C@@H](C)O)[C@@H](C)O)C(=O)N[C@H](C(=O)N[C@@H](CO)C(=O)N[C@@H](CO)C(=O)N[C@@H](Cc1ccc(O)cc1)C(=O)N[C@@H](CC(C)C)C(=O)N[C@@H](CCC(=O)O)C(=O)NCC(=O)N[C@@H](CCC(N)=O)C(=O)N[C@@H](C)C(=O)N[C@@H](C)C(=O)N[C@@H](CCCCN)C(=O)N[C@@H](CCC(=O)O)C(=O)N[C@@H](Cc1ccccc1)C(=O)N[C@H](C(=O)N[C@@H](C)C(=O)N[C@@H](Cc1c[nH]c2ccccc12)C(=O)N[C@@H](CC(C)C)C(=O)N[C@H](C(=O)N[C@@H](CCCCN)C(=O)NCC(=O)N[C@@H](CCCNC(=N)N)C(=O)NCC(=O)O)C(C)C)[C@@H](C)CC)C(C)C [compound 12] | 84.6 ± 4.36 nM |  |
| CCCCCCCCCCCCNC(=O)CC[C@H](NC(=O)[C@H](CC(C)C)NC(=O)[C@H](Cc1ccc(O)cc1)NC(=O)[C@H](CO)NC(=O)[C@H](CO)NC(=O)[C@@H](NC(=O)[C@H](CC(=O)O)NC(=O)[C@H](CO)NC(=O)[C@@H](NC(=O)[C@H](Cc1ccccc1)NC(=O)[C@@H](NC(=O)CNC(=O)[C@H](CCC(=O)O)NC(=O)[C@H](C)NC(=O)[C@@H](N)Cc1c[nH]cn1)[C@@H](C)O)[C@@H](C)O)C(C)C)C(=O)NCC(=O)N[C@@H](CCC(N)=O)C(=O)N[C@@H](C)C(=O)N[C@@H](C)C(=O)N[C@@H](CCCCN)C(=O)N[C@@H](CCC(=O)O)C(=O)N[C@@H](Cc1ccccc1)C(=O)N[C@H](C(=O)N[C@@H](C)C(=O)N[C@@H](Cc1c[nH]c2ccccc12)C(=O)N[C@@H](CC(C)C)C(=O)N[C@H](C(=O)N[C@@H](CCCCN)C(=O)NCC(=O)N[C@@H](CCCNC(=N)N)C(=O)NCC(=O)O)C(C)C)[C@@H](C)CC [compound 14] | 18.4 ± 2.36 nM |  |
| CCCCCCCCCCCC(=O)NCCCC[C@H](NC(=O)[C@@H](NC(=O)[C@H](CC(C)C)NC(=O)[C@H](Cc1c[nH]c2ccccc12)NC(=O)[C@H](C)NC(=O)[C@@H](NC(=O)[C@H](Cc1ccccc1)NC(=O)[C@H](CCC(=O)O)NC(=O)[C@H](CCCCN)NC(=O)[C@H](C)NC(=O)[C@H](C)NC(=O)[C@H](CCC(N)=O)NC(=O)CNC(=O)[C@H](CCC(=O)O)NC(=O)[C@H](CC(C)C)NC(=O)[C@H](Cc1ccc(O)cc1)NC(=O)[C@H](CO)NC(=O)[C@H](CO)NC(=O)[C@@H](NC(=O)[C@H](CC(=O)O)NC(=O)[C@H](CO)NC(=O)[C@@H](NC(=O)[C@H](Cc1ccccc1)NC(=O)[C@@H](NC(=O)CNC(=O)[C@H](CCC(=O)O)NC(=O)[C@H](C)NC(=O)[C@@H](N)Cc1c[nH]cn1)[C@@H](C)O)[C@@H](C)O)C(C)C)[C@@H](C)CC)C(C)C)C(=O)NCC(=O)N[C@@H](CCCNC(=N)N)C(=O)NCC(=O)O [compound 5] | 14.3 ± 1.1 nM |  |
| CCCCCCCC(=O)NCCCC[C@H](NC(=O)[C@H](C)NC(=O)[C@H](C)NC(=O)[C@H](CCC(N)=O)NC(=O)CNC(=O)[C@H](CCC(=O)O)NC(=O)[C@H](CC(C)C)NC(=O)[C@H](Cc1ccc(O)cc1)NC(=O)[C@H](CO)NC(=O)[C@H](CO)NC(=O)[C@@H](NC(=O)[C@H](CC(=O)O)NC(=O)[C@H](CO)NC(=O)[C@@H](NC(=O)[C@H](Cc1ccccc1)NC(=O)[C@@H](NC(=O)CNC(=O)[C@H](CCC(=O)O)NC(=O)[C@H](C)NC(=O)[C@@H](N)Cc1c[nH]cn1)[C@@H](C)O)[C@@H](C)O)C(C)C)C(=O)N[C@@H](CCC(=O)O)C(=O)N[C@@H](Cc1ccccc1)C(=O)N[C@H](C(=O)N[C@@H](C)C(=O)N[C@@H](Cc1c[nH]c2ccccc12)C(=O)N[C@@H](CC(C)C)C(=O)N[C@H](C(=O)N[C@@H](CCCCN)C(=O)NCC(=O)N[C@@H](CCCNC(=N)N)C(=O)NCC(=O)O)C(C)C)[C@@H](C)CC [compound 1] | 36.2 ± 0.95 nM |  |
| CCCCCCCCNC(=O)C[C@H](NC(=O)[C@@H](NC(=O)[C@H](CC(C)C)NC(=O)[C@H](Cc1c[nH]c2ccccc12)NC(=O)[C@H](C)NC(=O)[C@@H](NC(=O)[C@H](Cc1ccccc1)NC(=O)[C@H](CCC(=O)O)NC(=O)[C@H](CCCCN)NC(=O)[C@H](C)NC(=O)[C@H](C)NC(=O)[C@H](CCC(N)=O)NC(=O)CNC(=O)[C@H](CCC(=O)O)NC(=O)[C@H](CC(C)C)NC(=O)[C@H](Cc1ccc(O)cc1)NC(=O)[C@H](CO)NC(=O)[C@H](CO)NC(=O)[C@@H](NC(=O)[C@H](CC(=O)O)NC(=O)[C@H](CO)NC(=O)[C@@H](NC(=O)[C@H](Cc1ccccc1)NC(=O)[C@@H](NC(=O)CNC(=O)[C@H](CCC(=O)O)NC(=O)[C@H](C)NC(=O)[C@@H](N)Cc1c[nH]cn1)[C@@H](C)O)[C@@H](C)O)C(C)C)[C@@H](C)CC)C(C)C)C(=O)NCC(=O)N[C@@H](CCCNC(=N)N)C(=O)NCC(=O)O [compound 19] | 19.6 ± 2.14 nM |  |
| CCCCCCCCCCCCNC(=O)C[C@H](NC(=O)[C@@H](NC(=O)[C@H](CC(C)C)NC(=O)[C@H](Cc1c[nH]c2ccccc12)NC(=O)[C@H](C)NC(=O)[C@@H](NC(=O)[C@H](Cc1ccccc1)NC(=O)[C@H](CCC(=O)O)NC(=O)[C@H](CCCCN)NC(=O)[C@H](C)NC(=O)[C@H](C)NC(=O)[C@H](CCC(N)=O)NC(=O)CNC(=O)[C@H](CCC(=O)O)NC(=O)[C@H](CC(C)C)NC(=O)[C@H](Cc1ccc(O)cc1)NC(=O)[C@H](CO)NC(=O)[C@H](CO)NC(=O)[C@@H](NC(=O)[C@H](CC(=O)O)NC(=O)[C@H](CO)NC(=O)[C@@H](NC(=O)[C@H](Cc1ccccc1)NC(=O)[C@@H](NC(=O)CNC(=O)[C@H](CCC(=O)O)NC(=O)[C@H](C)NC(=O)[C@@H](N)Cc1c[nH]cn1)[C@@H](C)O)[C@@H](C)O)C(C)C)[C@@H](C)CC)C(C)C)C(=O)NCC(=O)N[C@@H](CCCNC(=N)N)C(=O)NCC(=O)O [compound 20] | 20.1 ± 1.97 nM |  |
